Structures can show the parent of a compound that is named as a salt.
Assays:
[1] = system: Human lung cancer cell line A549; experiment: MTT cancer cell cytotoxicity assay, A549; format: cell-based; conditions: Homo sapiens, A549 cells, 48-72 h
Procedure: (§1) Identification of 3-(2-methoxyphenyl)-6-(4-methoxyphenyl)-[1,2,4]triazolo[4,3-a]pyridine and analogs as inhibitors of cell proliferation that were evaluated with standard MTT cancer cell cytotoxicity assay (IC50)
(§2) Human lung cancer cell line A549, breast cancer cell line T47D, liver cancer cell lines HepG2 and SMMC7721 as well as a mouse melanoma cell line B16F10 were used in the study. The cells were cultured in corresponding growth media recommended by American Type Culture Collection (ATCC) with the supplementation of penicillin G (100 U/ml)/streptomycin (100 µg/ml), and 10% fetal bovine serum (Hangzhou Sijiqing Biological Engineering Materials, Co., Ltd. China) at 37° C. in a humidified atmosphere containing 5% CO2. Cells at about 80% confluency were harvested by trypsinization. Cells were centrifuged, re-suspended in fresh growth media and counted. Corresponding numbers of cells were seeded to 96-well cell culture plates (HepG2 cell, T-47D and A549 cells at 3000 cells/well, SMMC-7721 cells at 5000 cells/well and B16F10 cells at 2000 cells/well) in a total volume of […]. Cells were incubated in CO2 incubator over night to allow the cells to attach. In next day, […] of medium containing testing (from 10 μM to 1 nM) or reference compounds was added to each well of the cells. Media without compound were used as 100% control. Cells were treated with each concentration of compounds in triplicates to ensure data accuracy. Cells were incubated with compounds in CO2 incubator for an additional 48-72 h at 37° C. After incubation, cells were removed from the CO2 incubator and […] of 5 mg/ml MTT (3-(4,5-dimethylthiazole-2-yl)-2,5-diphenyltetrazoliumbromide, Sigma) solution in PBS was added to each well. Cells were returned to CO2 incubator and incubated for additional 4 h. After the incubation, media were removed by aspiration and […] DMSO was added to each well. Plates were sealed with aluminum foil and shaked mildly on an orbital shaker for 10 min at room temperature. The absorption was measured at 550 nm with a plate reader (Varioskan Flash, Thermo Fisher Scientific) with 660 nm reading used as background control. The relative absorbance readings were calculated by subtracting readings at 660 nm from that at 550 nm. The relative absorbance was plotted again the concentrations of the testing compounds and the plots were fitted with a one-site lg(IC50) equation using Prism 5 software (GraphPad Software, Inc). The equation used in the curve fitting is as follows: relative absorbance reading=background reading+(maximal reading−brackground reading)/(1+10 ^(compound concentration-log IC50)). The background reading used in the calculation was obtained with 100% cell death using a reference anticancer drug, whereas the maximal reading was obtained in the well with no added compound. The IC50 value calculated from the equation represents the cytotoxic potency of a particular compound.

[2] = system: liver cancer cell line SMMC7721; experiment: MTT cancer cell cytotoxicity assay, SMMC7721; format: cell-based, human; conditions: Homo sapiens, SMMC-7721, SMMC7721 cells, 48-72 h
Procedure: as §1, §2

[3] = system: breast cancer cell line T47D; experiment: MTT cancer cell cytotoxicity assay, T47D; format: cell-based, human; conditions: Homo sapiens, T47D cells, 48-72 h
Procedure: as §1, §2

[4] = system: liver cancer cell line HepG2; experiment: MTT cancer cell cytotoxicity assay, HepG2; format: cell-based, human; conditions: Homo sapiens, HepG2 cells, 48-72 h
Procedure: as §1, §2

| SMILES | IC50 [1] | IC50 [2] | IC50 [3] | IC50 [4] |
| --- | --- | --- | --- | --- |
| COc1ccccc1-c1nnc2ccc(-c3cccc(C)c3)cn12 [Example 23, 3-(2-Methoxyphenyl)-6-(3-methylphenyl)-[1,2,4]triazolo[4,3-a]pyridine] | 215 nM | 76 nM | 134 nM | 180 nM |
| COc1ccccc1-c1nnc2ccc(-c3ccc(C)cc3C)cn12 [Example 25, 6-(2,4-Dimethylphenyl)-3-(2-methoxyphenyl)-[1,2,4]triazolo[4,3-a]pyridine] | 725 nM | 114 nM | 415 nM | 724 nM |
| COc1cc(-c2ccc3nnc(-c4ccccc4OC)n3c2)ccc1C [Example 28, 6-(3-Methoxy-4-methylphenyl)-3-(2-methoxyphenyl)-[1,2,4]triazolo[4,3-a]pyridine] | 886 nM | 178 nM | 495 nM | 448 nM |
| COc1ccccc1-c1nnc2ccc(-c3cc(OC)c(OC)c(OC)c3)cn12 [Example 29, 3-(2-Methoxyphenyl)-6-(3,4,5-trimethoxyphenyl)-[1,2,4]triazolo[4,3-a]pyridine] | > 10000 nM | > 10000 nM | > 10000 nM | > 10000 nM |
| COc1ccccc1-c1nnc2ccc(-c3cc(C)c(OC)c(C)c3)cn12 [Example 30, 6-(3,5-Dimethyl-4-methoxyphenyl)-3-(2-methoxyphenyl)-[1,2,4]triazolo[4,3-a]pyridine] | > 10000 nM | 1760 nM | 5160 nM | 2370 nM |
| COc1ccc(-c2ccc3nnc(-c4ccccc4OC)n3c2)cc1OC [Example 31, 6-(3,4-Dimethoxyphenyl)-3-(2-methoxyphenyl)-[1,2,4]triazolo[4,3-a]pyridine] | 241 nM | 492 nM | 765 nM | 474 nM |
| COc1ccccc1-c1nnc2ccc(-c3ccc(C)c(C)c3)cn12 [Example 32, 6-(3,4-Dimethylphenyl)-3-(2-methoxyphenyl)-[1,2,4]triazolo[4,3-a]pyridine] | 157 nM | 39 nM | 148 nM | 83 nM |
| COc1ccccc1-c1nnc2ccc(-c3ccc(C)c(F)c3)cn12 [Example 33, 6-(3-Fluoro-4-methylphenyl)-3-(2-methoxyphenyl)-[1,2,4]triazolo[4,3-a]pyridine] | 630 nM | 164 nM | 804 nM | 772 nM |
| COc1ccc(-c2ccc3nnc(-c4ccccc4OC)n3c2)c(OC)c1 [Example 36, 6-(2,4-Dimethoxyphenyl)-3-(2-methoxyphenyl)-[1,2,4]triazolo[4,3-a]pyridine] | 74 nM | 29 nM | 315 nM | 78 nM |
| COc1ccccc1-c1nnc2ccc(-c3ccc(OCc4ccccc4)c(C)c3)cn12 [Example 37, 6-(4-Benzyloxy-3-methylphenyl)-3-(2-methoxyphenyl)-[1,2,4]triazolo[4,3-a]pyridine] | 7120 nM | 3340 nM | 9340 nM | 3560 nM |
| COc1ccccc1-c1nnc2ccc(-c3ccc(O)c(C)c3)cn12 [Example 41, 6-(4-Hydroxy-3-methylphenyl)-3-(2-methoxyphenyl)-[1,2,4]triazolo[4,3-a]pyridine] | 212 nM | 117 nM | 129 nM | 155 nM |
| COc1ccc([N+](=O)[O-])cc1-c1nnc2ccc(-c3ccc(OC)c([N+](=O)[O-])c3)cn12 [Example 42, 6-(4-Methoxy-3-nitrophenyl)-3-(2-methoxy-5-nitrophenyl)-[1,2,4]triazolo[4,3-a]pyridine] | 489 nM | 230 nM | 279 nM | 312 nM |
| COc1cc(-c2ccc3nnc(-c4ccccc4OC)n3c2)ccc1N [Example 43, 6-(4-Amino-3-methoxyphenyl)-3-(2-methoxyphenyl)-[1,2,4]triazolo[4,3-a]pyridine] | > 10000 nM | 2200 nM | 2250 nM | 1640 nM |
| COc1ccccc1-c1nnc2ccc(-c3ccc(C)c(N)c3)cn12 [Example 44, 6-(3-Amino-4-methylphenyl)-3-(2-methoxyphenyl)-[1,2,4]triazolo[4,3-a]pyridine] | 54 nM | 20 nM | 48 nM | 29 nM |
| COc1ccccc1-c1nnc2ccc(-c3cccc(N)c3)cn12 [Example 45, 6-(3-Aminophenyl)-3-(2-methoxyphenyl)-[1,2,4]triazolo[4,3-a]pyridine hydrochloride] | 2930 nM | 829 nM | 678 nM | 1250 nM |
| COc1ccccc1-c1nnc2ccc(-c3ccc(N)cc3)cn12 [Example 47, 6-(4-Aminophenyl)-3-(2-methoxyphenyl)-[1,2,4]triazolo[4,3-a]pyridine hydrochloride] | 1050 nM | 365 nM | 189 nM | 717 nM |
| COc1ccc(-c2cn3c(-c4ccccc4OC)nnc3cc2C)cc1 [Example 54, 3-(2-Methoxyphenyl)-6-(4-methoxyphenyl)-7-methyl-[1,2,4]triazolo[4,3-a]pyridine] | 428 nM | 94 nM | 151 nM | 134 nM |
| COc1ccc(-c2cc(C)c3nnc(-c4ccccc4OC)n3c2)cc1 [Example 55, 3-(2-Methoxyphenyl)-6-(4-methoxyphenyl)-8-methyl-[1,2,4]triazolo[4,3-a]pyridine] | 122 nM | 58 nM | 260 nM | 88 nM |
| COc1cc(-c2ccc3nnc(-c4ccccc4OC)n3c2)ccc1O [Example 56, 6-(4-Hydroxy-3-methoxyphenyl)-3-(2-methoxyphenyl)-[1,2,4]triazolo[4,3-a]pyridine] | > 10000 nM | 1820 nM | 1480 nM | 706 nM |
| COc1ccc(-c2ccc3nnc(-c4ccc(F)cc4OC)n3c2)cc1 [Example 58, 3-(4-Fluoro-2-methoxyphenyl)-6-(4-methoxyphenyl)-[1,2,4]triazolo[4,3-a]pyridine] | 59 nM | 17 nM | 54 nM | 35 nM |
| COc1ccc(-c2ccc3nnc(-c4c(OC)cccc4OC)n3c2)cc1 [Example 61, 3-(2,6-Dimethoxyphenyl)-6-(4-methoxyphenyl)-[1,2,4]triazolo[4,3-a]pyridine] | 2560 nM | 258 nM | 2920 nM | 949 nM |
| COc1ccc(-c2ccc3nnc(-c4cc(OC)ccc4OC)n3c2)cc1 [Example 62, 3-(2,5-Dimethoxyphenyl)-6-(4-methoxyphenyl)-[1,2,4]triazolo[4,3-a]pyridine] | 142 nM | 42 nM | 156 nM | 77 nM |
| COc1ccc(-c2ccc3nnc(-c4c(F)cccc4OC)n3c2)cc1 [Example 63, 3-(6-Fluoro-2-methoxyphenyl)-6-(4-methoxyphenyl)-[1,2,4]triazolo[4,3-a]pyridine] | 174 nM | 36 nM | 149 nM | 236 nM |
| COc1ccc(-c2ccc3nnc(-c4ccc(OC)cc4)n3c2)cc1 [Example 64, 3,6-Bis(4-methoxyphenyl)-[1,2,4]triazolo[4,3-a]pyridine] | 641 nM | 150 nM | 341 nM | 568 nM |
| COc1ccc(-c2ccc3nnc(-c4c(OC)ccc(Br)c4OC)n3c2)cc1 [Example 65, 3-(3-Bromo-2,6-dimethoxyphenyl)-6-(4-methoxyphenyl)-[1,2,4]triazolo[4,3-a]pyridine] | 2460 nM | 199 nM | 569 nM | 944 nM |
| COc1ccc(-c2ccc3nnc(-c4ccccc4OC(F)(F)F)n3c2)cc1 [Example 67, 6-(4-Methoxyphenyl)-3-(2-trifluoromethoxyphenyl)-[1,2,4]triazolo[4,3-a]pyridine] | 471 nM | 105 nM | 328 nM | 910 nM |
